In one assay the target is αvβ1 (Homo sapiens, UniProt P05556+P06756). The assay can be described thus: Solid Phase Integrin αvβ1 Assay. Format: binding. In a few lines: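 Compound competes for αvβ1 binding to immobilized TGFb1-LAP (1 µg/mL coat) in Mn2+ (1 mM MnCl2), 2% BSA binding buffer over 90 min at room temperature, integrin added at 0.2 µg/mL. Read-out: streptavidin-HRP/TMB; IC50 from Levenberg-Marquardt four-parameter fit.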

Another assay addresses αvβ6 (Homo sapiens, UniProt P06756+P18564). The assay can be described thus: Solid Phase Integrin αvβ6 Assay. Format: binding. In a few lines:
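Inhibition of αvβ6 binding to immobilized recombinant TGFb1-LAP (1 μg/mL coating), 1 h at room temperature with 1 mM MnCl2 in BSA/TBST buffer, integrin diluted to 0.2 μg/mL before addition. Streptavidin-HRP/TMB read-out; four-parameter logistic fitting gave IC50.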

What is called IC50 is the midpoint of a concentration-inhibition curve. A low value points to greater potency.

Sequence of αvβ1 (P06756 31-992 limits assumed): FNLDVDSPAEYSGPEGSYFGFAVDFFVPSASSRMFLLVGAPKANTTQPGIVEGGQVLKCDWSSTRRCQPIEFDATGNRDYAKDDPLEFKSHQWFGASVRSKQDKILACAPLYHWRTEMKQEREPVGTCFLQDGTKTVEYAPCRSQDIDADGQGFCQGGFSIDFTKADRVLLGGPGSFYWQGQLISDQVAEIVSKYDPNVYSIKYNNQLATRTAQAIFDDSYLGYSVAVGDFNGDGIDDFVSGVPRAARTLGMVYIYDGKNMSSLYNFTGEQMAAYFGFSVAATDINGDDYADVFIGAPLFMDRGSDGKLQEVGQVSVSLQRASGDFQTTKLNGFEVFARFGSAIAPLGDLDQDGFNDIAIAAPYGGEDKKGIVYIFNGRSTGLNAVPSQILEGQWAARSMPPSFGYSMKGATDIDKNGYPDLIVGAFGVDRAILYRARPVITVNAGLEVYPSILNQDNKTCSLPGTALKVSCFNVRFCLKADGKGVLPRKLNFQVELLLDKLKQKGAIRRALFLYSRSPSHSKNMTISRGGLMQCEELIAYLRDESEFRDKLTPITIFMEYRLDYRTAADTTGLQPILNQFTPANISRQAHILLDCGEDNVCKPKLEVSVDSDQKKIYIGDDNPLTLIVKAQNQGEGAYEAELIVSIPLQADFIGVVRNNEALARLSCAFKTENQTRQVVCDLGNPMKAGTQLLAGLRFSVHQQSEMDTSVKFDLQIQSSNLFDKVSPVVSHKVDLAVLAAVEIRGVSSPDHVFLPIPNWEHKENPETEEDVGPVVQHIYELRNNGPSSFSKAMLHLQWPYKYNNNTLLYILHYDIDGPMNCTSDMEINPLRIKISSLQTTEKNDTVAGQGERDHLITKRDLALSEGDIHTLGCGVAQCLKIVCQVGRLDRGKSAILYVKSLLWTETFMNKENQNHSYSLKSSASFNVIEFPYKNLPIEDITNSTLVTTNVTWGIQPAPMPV
Sequence of αvβ1 (P05556 21-728 limits assumed): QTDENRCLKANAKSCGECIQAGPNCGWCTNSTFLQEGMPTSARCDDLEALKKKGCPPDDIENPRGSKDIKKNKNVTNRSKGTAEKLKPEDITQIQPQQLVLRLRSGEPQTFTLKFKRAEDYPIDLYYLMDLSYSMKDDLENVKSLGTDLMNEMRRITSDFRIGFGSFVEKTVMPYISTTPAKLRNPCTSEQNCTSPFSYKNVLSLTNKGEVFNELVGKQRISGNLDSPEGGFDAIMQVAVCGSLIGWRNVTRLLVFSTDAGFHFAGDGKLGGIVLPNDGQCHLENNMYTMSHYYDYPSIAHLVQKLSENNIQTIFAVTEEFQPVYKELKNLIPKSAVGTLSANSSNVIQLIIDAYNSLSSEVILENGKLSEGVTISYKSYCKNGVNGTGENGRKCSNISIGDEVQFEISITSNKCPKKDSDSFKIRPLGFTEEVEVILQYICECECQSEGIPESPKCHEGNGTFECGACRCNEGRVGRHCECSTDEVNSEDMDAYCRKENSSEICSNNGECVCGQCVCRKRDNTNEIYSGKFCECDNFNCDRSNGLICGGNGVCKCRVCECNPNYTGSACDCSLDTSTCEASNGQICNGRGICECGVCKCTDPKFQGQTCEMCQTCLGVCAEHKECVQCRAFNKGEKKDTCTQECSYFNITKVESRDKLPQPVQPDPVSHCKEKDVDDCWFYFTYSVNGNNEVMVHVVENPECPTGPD
Sequence of αvβ6 (P06756 31-992 limits assumed): as the sequence (P06756 31-992 limits assumed) above
Sequence of αvβ6 (P18564 22-707 limits assumed): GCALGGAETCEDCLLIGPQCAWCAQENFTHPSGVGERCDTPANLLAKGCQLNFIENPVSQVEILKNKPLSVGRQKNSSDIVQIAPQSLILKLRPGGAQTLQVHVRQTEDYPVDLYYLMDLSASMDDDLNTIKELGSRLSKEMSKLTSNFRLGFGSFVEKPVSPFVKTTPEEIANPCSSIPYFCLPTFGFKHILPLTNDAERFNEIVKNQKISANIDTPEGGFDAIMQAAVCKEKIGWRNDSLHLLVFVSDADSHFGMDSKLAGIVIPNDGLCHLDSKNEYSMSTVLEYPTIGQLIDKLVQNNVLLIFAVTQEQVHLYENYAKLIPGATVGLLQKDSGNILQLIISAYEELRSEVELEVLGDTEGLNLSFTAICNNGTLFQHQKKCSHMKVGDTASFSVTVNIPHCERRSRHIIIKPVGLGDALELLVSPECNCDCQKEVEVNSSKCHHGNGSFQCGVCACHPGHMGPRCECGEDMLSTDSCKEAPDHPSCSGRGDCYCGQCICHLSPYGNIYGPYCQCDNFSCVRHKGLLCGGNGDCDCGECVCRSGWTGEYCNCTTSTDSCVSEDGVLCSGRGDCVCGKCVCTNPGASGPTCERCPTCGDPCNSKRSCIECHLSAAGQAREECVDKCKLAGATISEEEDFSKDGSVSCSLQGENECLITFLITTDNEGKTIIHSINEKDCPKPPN

Regarding `O=C(O)C[C@@H](O[C@@H]1CCCN(CCCCc2ccc3c(n2)NCCC3)C1)c1ccccc1` [Compound 391], the IC50 on αvβ1 and against αvβ6 was above 1000 nM in each case.
On to `O=C(O)C[C@H](O[C@@H]1CCCN(Cc2ccc3c(n2)NCCC3)C1)c1ccccc1` [Compound 392], for which the IC50 at αvβ1 and on αvβ6 was above 1000 nM in each case.
On to `O=C(O)C[C@H](O[C@@H]1CCCN(CCCCc2ccc3c(n2)NCCC3)C1)c1ccccc1` [Compound 393], for which the IC50 against αvβ1 and at αvβ6 was above 1000 nM in each case.
As to `O=C(O)[C@@H](CO[C@@H]1CCCN(CCCCc2ccc3c(n2)NCCC3)C1)c1ccccc1` [Compound 394], the IC50 against αvβ1 and at αvβ6 was above 1000 nM throughout.
On to `O=C(O)[C@H](CO[C@@H]1CCCN(CCCCc2ccc3c(n2)NCCC3)C1)c1ccccc1` [Compound 395], for which the IC50 at αvβ1 and against αvβ6 was above 1000 nM each time.
Consider `O=C(O)[C@H](CO[C@@H]1CCCN(Cc2ccc3c(n2)NCCC3)C1)c1ccccc1` [Compound 396], for which the IC50 against αvβ1 and at αvβ6 was above 1000 nM each time.
Take `O=C(O)[C@H](CCO[C@@H]1CCCN(Cc2ccc3c(n2)NCCC3)C1)NC(=O)C12CCC(CC1)CC2` [Compound 397]: the IC50 at αvβ1 is 100 to 1000 nM; against αvβ6, above 1000 nM.
With `O=C(O)[C@H](CCO[C@@H]1CCCN(CCc2ccc3c(n2)NCCC3)C1)NC(=O)C12CCC(CC1)CC2` [Compound 398], the IC50 at αvβ1 and at αvβ6 was below 100 nM each time.
In the case of `O=C(O)[C@H](CCO[C@@H]1CCCN(CCCCc2ccc3c(n2)NCCC3)C1)NC(=O)C12CCC(CC1)CC2` [Compound 399], the half-maximal inhibitory concentration (IC50) against αvβ1 and against αvβ6 was below 100 nM throughout.
On to `O=C(O)[C@H](CO[C@@H]1CCCN(CCCc2ccc3c(n2)NCCC3)C1)NC(=O)C12CCC(CC1)CC2` [Compound 400], for which the IC50 against αvβ1 and on αvβ6 was below 100 nM throughout.
Regarding `O=C(O)[C@@H](CO[C@@H]1CCCN(CCCCc2ccc3c(n2)NCCC3)C1)NC(=O)C12CCC(CC1)CC2` [Compound 401], the IC50 against αvβ1 and against αvβ6 was above 1000 nM throughout.
As to `O=C(O)[C@H](CO[C@@H]1CCCN(CCCCc2ccc3c(n2)NCCC3)C1)NC(=O)C12CCC(CC1)CC2` [Compound 402], the IC50 at αvβ1 was 100 to 1000 nM; on αvβ6, below 100 nM.
`O=C(O)[C@@H](CO[C@@H]1CCCN(Cc2ccc3c(n2)NCCC3)C1)NC(=O)C12CCC(CC1)CC2` [Compound 403]: the IC50 against αvβ1 and against αvβ6 was above 1000 nM in each case.
In the case of `O=C(O)[C@H](CO[C@@H]1CCCN(Cc2ccc3c(n2)NCCC3)C1)NC(=O)C12CCC(CC1)CC2` [Compound 404], the IC50 against αvβ1 and at αvβ6 was above 1000 nM each time.
With `O=C(O)[C@@H](CCO[C@@H]1CCCN(CCCCc2ccc3c(n2)NCCC3)C1)Nc1ncnc2ccccc12` [Compound 405], the IC50 is 100 to 1000 nM against αvβ1 and below 100 nM on αvβ6.
The matching figures for `O=C(O)[C@@H](CCO[C@@H]1CCCN(CCc2ccc3c(n2)NCCC3)C1)Nc1ncnc2ccccc12` [Compound 406]: 100 to 1000 nM and 100 to 1000 nM.
The matching figures for `O=C(O)[C@@H](CCO[C@@H]1CCCN(Cc2ccc3c(n2)NCCC3)C1)Nc1ncnc2ccccc12` [Compound 407]: above 1000 nM and above 1000 nM.
Take `O=C(O)[C@@H](CO[C@@H]1CCCN(CCCc2ccc3c(n2)NCCC3)C1)Nc1ncnc2ccccc12` [Compound 408]: the IC50 at αvβ1 and at αvβ6 was above 1000 nM each time.
Take `O=C(O)[C@H](CO[C@@H]1CCCN(CCCCc2ccc3c(n2)NCCC3)C1)Nc1ncnc2ccccc12` [Compound 409]: the IC50 against αvβ1 is above 1000 nM; against αvβ6 it was below 100 nM.
As to `O=C(O)[C@@H](CO[C@@H]1CCCN(CCCCc2ccc3c(n2)NCCC3)C1)Nc1ncnc2ccccc12` [Compound 410], the IC50 on αvβ1 and at αvβ6 was above 1000 nM in each case.
Consider `O=C(O)[C@@H](CO[C@@H]1CCCN(Cc2ccc3c(n2)NCCC3)C1)Nc1ncnc2ccccc12` [Compound 411], for which the IC50 against αvβ1 and on αvβ6 was above 1000 nM throughout.
Consider `O=C(O)C[C@@H](NC(=O)[C@@H]1CCCN(CCCc2ccc3c(n2)NCCC3)C1)c1cccc(OC2COC2)c1` [Compound 412], for which the half-maximal inhibitory concentration (IC50) against αvβ1 and against αvβ6 was below 100 nM throughout.
On to `O=C(O)C[C@@H](NC(=O)[C@@H]1CCCN(CCCc2ccc3c(n2)NCCC3)C1)c1cnc2ccccc2c1` [Compound 413], for which the IC50 against αvβ1 and against αvβ6 was below 100 nM each time.
In the case of `O=C(O)C[C@@H](CC(=O)N[C@@H]1CCN(CCCCc2ccc3c(n2)NCCC3)C1)c1ccccc1` [Compound 414], the figures for the IC50 on αvβ1 and at αvβ6 were below 100 nM and above 1000 nM, respectively.
`O=C(O)C[C@H](CC(=O)N[C@@H]1CCN(CCCCc2ccc3c(n2)NCCC3)C1)c1ccccc1` [Compound 415]: the IC50 at αvβ1 and on αvβ6 was 100 to 1000 nM throughout.
Regarding `O=C(O)C[C@H](CC(=O)N[C@@H]1CCN(C(=O)CCCc2ccc3c(n2)NCCC3)C1)c1ccccc1` [Compound 416], the IC50 at αvβ1 and on αvβ6 was above 1000 nM each time.
For `O=C(O)C[C@@H](CC(=O)N[C@@H]1CCN(C(=O)CCCc2ccc3c(n2)NCCC3)C1)c1ccccc1` [Compound 417], the IC50 against αvβ1 was below 100 nM; at αvβ6, 100 to 1000 nM.
For `O=C(CC[C@H](C(=O)O)c1ccccc1)N[C@@H]1CCN(C(=O)CCCc2ccc3c(n2)NCCC3)C1` [Compound 418], the IC50 at αvβ1 and at αvβ6 was above 1000 nM throughout.
As to `O=C(CC[C@@H](C(=O)O)c1ccccc1)N[C@@H]1CCN(C(=O)CCCc2ccc3c(n2)NCCC3)C1` [Compound 419], the IC50 against αvβ1 and at αvβ6 was above 1000 nM throughout.
As for `O=C(CC[C@H](C(=O)O)c1ccccc1)N[C@@H]1CCN(CCCCc2ccc3c(n2)NCCC3)C1` [Compound 420], the IC50 at αvβ1 and at αvβ6 was above 1000 nM each time.
Turning to `O=C(CC[C@@H](C(=O)O)c1ccccc1)N[C@@H]1CCN(CCCCc2ccc3c(n2)NCCC3)C1` [Compound 421], the IC50 at αvβ1 and at αvβ6 was above 1000 nM in each case.
As for `O=C(CC[C@H](C(=O)O)c1ccccc1)N[C@H]1CCN(CCCCc2ccc3c(n2)NCCC3)C1` [Compound 422], the IC50 at αvβ1 and at αvβ6 was above 1000 nM in each case.
As to `O=C(CC[C@@H](C(=O)O)c1ccccc1)N[C@H]1CCN(C(=O)CCCc2ccc3c(n2)NCCC3)C1` [Compound 423], the IC50 at αvβ1 and against αvβ6 was above 1000 nM in each case.
For the compound `O=C(CC[C@H](C(=O)O)c1ccccc1)N[C@H]1CCN(CCCCc2ccc3c(n2)NCCC3)C1` [Compound 424], the IC50 against αvβ1 and against αvβ6 was above 1000 nM in each case.
On to `O=C(CC[C@@H](C(=O)O)c1ccccc1)N[C@H]1CCN(CCCCc2ccc3c(n2)NCCC3)C1` [Compound 425], for which the IC50 against αvβ1 and against αvβ6 was above 1000 nM in each case.
Consider `O=C(CC[C@H](NC(=O)C12CCC(CC1)CC2)C(=O)O)N[C@@H]1CCN(CCCCc2ccc3c(n2)NCCC3)C1` [Compound 426], for which the IC50 on αvβ1 and at αvβ6 was below 100 nM in each case.
`O=C(CC[C@@H](NC(=O)C12CCC(CC1)CC2)C(=O)O)N[C@@H]1CCN(CCCCc2ccc3c(n2)NCCC3)C1` [Compound 427]: the IC50 at αvβ1 and against αvβ6 was above 1000 nM in each case.
`O=C(CC[C@H](NC(=O)C12CCC(CC1)CC2)C(=O)O)N[C@@H]1CCN(C(=O)CCCc2ccc3c(n2)NCCC3)C1` [Compound 428]: the concentration for half-maximal inhibition (IC50) against αvβ1 and against αvβ6 was below 100 nM each time.
Regarding `O=C(CC[C@@H](NC(=O)C12CCC(CC1)CC2)C(=O)O)N[C@@H]1CCN(C(=O)CCCc2ccc3c(n2)NCCC3)C1` [Compound 429], the IC50 at αvβ1 and at αvβ6 was above 1000 nM each time.
With `O=C(CC[C@H](NC(=O)C12CCC(CC1)CC2)C(=O)O)N[C@H]1CCN(CCCCc2ccc3c(n2)NCCC3)C1` [Compound 430], the IC50 against αvβ1 and against αvβ6 was below 100 nM in each case.
Regarding `O=C(CC[C@@H](NC(=O)C12CCC(CC1)CC2)C(=O)O)N[C@H]1CCN(CCCCc2ccc3c(n2)NCCC3)C1` [Compound 431], the IC50 at αvβ1 and on αvβ6 was above 1000 nM each time.
Take `O=C(CC[C@H](NC(=O)C12CCC(CC1)CC2)C(=O)O)N[C@H]1CCN(C(=O)CCCc2ccc3c(n2)NCCC3)C1` [Compound 432]: the IC50 on αvβ1 and against αvβ6 was below 100 nM in each case.
As to `O=C(CC[C@@H](NC(=O)C12CCC(CC1)CC2)C(=O)O)N[C@H]1CCN(C(=O)CCCc2ccc3c(n2)NCCC3)C1` [Compound 433], the IC50 at αvβ1 and against αvβ6 was above 1000 nM in each case.
As for `O=C(CC[C@H](NC(=O)[C@H]1CCCN1S(=O)(=O)c1ccccc1)C(=O)O)N[C@H]1CCN(CCCCc2ccc3c(n2)NCCC3)C1` [Compound 434], the IC50 on αvβ1 and on αvβ6 was below 100 nM each time.
Consider `O=C(CC[C@H](NC(=O)[C@@H]1CCCN1S(=O)(=O)c1ccccc1)C(=O)O)N[C@H]1CCN(CCCCc2ccc3c(n2)NCCC3)C1` [Compound 435], for which the IC50 at αvβ1 was below 100 nM; against αvβ6 it was 100 to 1000 nM.
For `O=C(CC[C@@H](NC(=O)[C@H]1CCCN1S(=O)(=O)c1ccccc1)C(=O)O)N[C@H]1CCN(CCCCc2ccc3c(n2)NCCC3)C1` [Compound 436], the IC50 on αvβ1 is 100 to 1000 nM; against αvβ6, above 1000 nM.
In the case of `O=C(CC[C@@H](NC(=O)[C@@H]1CCCN1S(=O)(=O)c1ccccc1)C(=O)O)N[C@H]1CCN(CCCCc2ccc3c(n2)NCCC3)C1` [Compound 437], the IC50 against αvβ1 was below 100 nM; against αvβ6, above 1000 nM.
For `O=C(CC[C@H](NC(=O)[C@H]1CCCN1S(=O)(=O)c1ccccc1)C(=O)O)N[C@H]1CCN(C(=O)CCCc2ccc3c(n2)NCCC3)C1` [Compound 438], the IC50 against αvβ1 and on αvβ6 was below 100 nM throughout.

For the origin of these results see patent US20240208968A1, “ALPHA V BETA 6 AND ALPHA V BETA 1 INTEGRIN INHIBITORS AND USES THEREOF” (DiCE Molecules SV, Inc., priority 2021, published 2024).
